We go through 25 molecules from patent publication US9169209B2, “Compounds and compositions for the inhibition of NAMPT” (FORMA TM, LLC, priority 2011, dated 2015).

One test concerns the target NAMPT (Homo sapiens (Human), UniProt P43490). The experiment in a line: Biochemical Inhibition Assay (NAMPT enzymatic reaction, NMN quantified by mass spectrometry). To be noted: recombinant His-tagged NAMPT, 33 nM; 1 μM NAM; read-out: Biochem IC50. On the procedure:
Recombinant His-tagged NAMPT was produced in E. coli cells, purified over a Ni column, and further purified over a size-exclusion column by XTAL Biostructures.
The NAMPT enzymatic reactions were carried out in Buffer A (50 mM Hepes pH 7.5, 50 mM NaCl, 5 mM MgCl2, and 1 mM THP) in 96-well V-bottom plates. The compound titrations were performed in a separate dilution plate by serially diluting the compounds in DMSO to make a 100× stock. […] The compound and enzyme mix was incubated for 15 minutes at room temperature, then 10 μL of 10× substrate and co-factors in Buffer A were added to the test well to make a final concentration of 1 μM NAM, 100 μM 5-Phospho-D-ribose 1-diphosphate (PRPP), and 2.5 mM Adenosine 5′-triphosphate (ATP). The reaction was allowed to proceed for 30 minutes at room temperature, then was quenched with the addition of 11 μL of a solution of formic acid and L-Cystathionine to make a final concentration of 1% formic acid and 10 μM L-Cystathionine. Background and signal strength was determined by addition (or non-addition) of a serial dilution of NMN to a pre-quenched enzyme and cofactor mix.
A mass spectrometry-based assay was used to measure the NAMPT reaction product (NMN) and the internal control (L-Cystathionine). NMN and L-Cystathionine were detected using the services of Biocius Lifesciences with the RapidFire system. In short, the NMN and L-Cystathionine are bound to a graphitic carbon cartridge in 0.1% formic acid, eluted in 30% acetonitrile buffer, and injected into a Sciex 4000 mass spectrometer. The components of the sample were ionized with electrospray ionization and the positive ions were detected. […] The fragments are quantified and the analyzed by the following method.
First the NMN signal is normalized to the L-Cystathionine signal by dividing the NMN signal by the L-Cystathionine signal for each well. The signal from the background wells are averaged and subtracted from the test plates.
Wherein x denotes the average signal of the compound treated wells and y denotes the average signal of the DMSO treated wells.
IC50s are Determined Using Excel and this Formula.
Wherein X denotes the compound concentration 1, Y denotes the compound concentration 2, XX denotes the % inhibition at compound concentration 1 (X), and YY denotes the % inhibition at compound concentration 2 (Y).

In a further test the test system is A2780 cells. The experiment in a line: In-Vitro Cell Proliferation Assay (SRB, 72 hours). It is filed as cell-based. The conditions noted are these: Homo sapiens, A2780, 72 h, A2780 cells, 72 hours, sulforhodamine B; read-out: A2780 IC50. On the procedure: After overnight incubation at 37° C. and 5% CO2, the compound titrations were performed in a separate dilution plate by serially diluting the compounds in DMSO to make a 1000× stock. The compounds were then further diluted to 10× final concentration in culture media, whereupon 20 μL of each dilution was added to the plated cells with controls (e.g. DMSO and blank) to make a final volume of 200 μL. The final DMSO concentration in each well was 0.1%. The plates were then incubated for 72 hours at 37° C. in a 5% CO2 incubator. The number of viable cells was then assessed using sulforhodamine B (SRB) assay. Cells were fixed at 4° C. for 1 hour with the addition of 50 μL 30% trichloroacetic acid (TCA) to make a final concentration of 6% TCA. The plates were washed four times with H2O and allowed to dry for at least 1 hour, whereupon 100 μL of a 4% SRB in 1% acetic acid solution was added to each well and incubated at room temperature for at least 30 minutes. The plates were then washed three times with 1% acetic acid, dried, and treated with 100 μL of 10 mM Tris-Base solution. The plates were then read in a microplate reader at an absorbance of 570 nm. Background was generated on a separate plate with media only.
First, the signals from the background plate are averaged and then the background was subtracted from the test plates.
wherein x denotes the average signal of the compound-treated cells and y denotes the average signal of the DMSO-treated cells.
wherein X denotes the compound concentration 1, Y denotes the compound concentration 2, XX denotes the % inhibition at compound concentration 1 (X), and YY denotes the % inhibition at compound concentration 2 (Y).

Chain of NAMPT (P43490 whole entry): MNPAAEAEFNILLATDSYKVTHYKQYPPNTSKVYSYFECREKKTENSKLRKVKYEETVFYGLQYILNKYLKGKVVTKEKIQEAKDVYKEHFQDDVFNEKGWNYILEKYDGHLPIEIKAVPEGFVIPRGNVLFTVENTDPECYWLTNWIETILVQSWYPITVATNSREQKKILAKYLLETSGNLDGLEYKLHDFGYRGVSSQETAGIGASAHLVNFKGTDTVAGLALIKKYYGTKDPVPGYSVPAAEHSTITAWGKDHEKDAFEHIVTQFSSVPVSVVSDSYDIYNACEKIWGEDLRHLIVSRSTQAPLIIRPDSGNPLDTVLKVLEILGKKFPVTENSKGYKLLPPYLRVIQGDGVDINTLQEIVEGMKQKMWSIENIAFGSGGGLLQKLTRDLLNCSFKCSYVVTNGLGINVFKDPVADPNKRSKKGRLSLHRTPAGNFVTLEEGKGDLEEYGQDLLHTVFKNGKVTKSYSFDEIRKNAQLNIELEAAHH

Turning to `Cc1cc(C)n(-c2cccc(S(=O)(=O)c3ccc(NC(=O)/C=C/c4cccnc4)cc3)c2)n1` [(2E)-N-(4-{[3-(3,5-dimethyl-1H-pyrazol-1-yl)benzene]sulfonyl}phenyl)-3-(pyridin-3-yl)prop-2-enamide], the IC50 on NAMPT worked out at 0.0091 µM; in the test with A2780 cells, 0.0319 µM.
With `CCS(=O)(=O)c1cccc(S(=O)(=O)c2ccc(NC(=O)/C=C/c3cccnc3)cc2)c1` [(2E)-N-(4-{[3-(ethanesulfonyl)benzene]sulfonyl}phenyl)-3-(pyridin-3-yl)prop-2-enamide], the half-inhibitory concentration (IC50) amounted to 0.0173 µM on NAMPT and 0.0704 µM in the test with A2780 cells.
For `COCc1cccc(S(=O)(=O)c2ccc(NC(=O)/C=C/c3cccnc3)cc2)c1` [(2E)-N-(4-{[3-(methoxymethyl)benzene]sulfonyl}phenyl)-3-(pyridin-3-yl)prop-2-enamide] the same measures were 0.0077 µM and 0.078 µM.
For `O=C(/C=C/c1cccnc1)Nc1ccc(S(=O)(=O)c2cccc(N3CCOCC3)c2)cc1` [(2E)-N-(4-{[3-(morpholin-4-yl)benzene]sulfonyl}phenyl)-3-(pyridin-3-yl)prop-2-enamide], in that order: 0.0092 µM and 0.0303 µM.
For `CC(C)Oc1cccc(S(=O)(=O)c2ccc(NC(=O)/C=C/c3cccnc3)cc2)c1` [(2E)-N-(4-{[3-(propan-2-yloxy)benzene]sulfonyl}phenyl)-3-(pyridin-3-yl)prop-2-enamide], in that order: 0.0011 µM and 0.0489 µM.
On to `O=C(/C=C/c1cccnc1)Nc1ccc(S(=O)(=O)c2ccc(C(F)(F)F)c(Cl)c2)cc1` [(2E)-N-(4-{[3-chloro-4-(trifluoromethyl)benzene]sulfonyl}phenyl)-3-(pyridin-3-yl)prop-2-enamide], for which the values for the IC50 at NAMPT and in the test on A2780 cells were 0.0434 µM and 0.1 to 1 µM, respectively.
As for `O=C(/C=C/c1cccnc1)Nc1ccc(S(=O)(=O)c2cc(Cl)cc(C(F)(F)F)c2)cc1` [(2E)-N-(4-{[3-chloro-5-(trifluoromethyl)benzene]sulfonyl}phenyl)-3-(pyridin-3-yl)prop-2-enamide], the IC50 at NAMPT is 0.0081 µM; in the test with A2780 cells it was 0.0583 µM.
For `CC(C)COc1cc(F)cc(S(=O)(=O)c2ccc(NC(=O)/C=C/c3cccnc3)cc2)c1` [(2E)-N-(4-{[3-fluoro-5-(2-methylpropoxy)benzene]sulfonyl}phenyl)-3-(pyridin-3-yl)prop-2-enamide] the same measures were 0.0354 µM and 0.0613 µM.
For `O=C(/C=C/c1cccnc1)Nc1ccc(S(=O)(=O)c2ccc(-n3cccn3)cc2)cc1` [(2E)-N-(4-{[4-(1H-pyrazol-1-yl)benzene]sulfonyl}phenyl)-3-(pyridin-3-yl)prop-2-enamide], in that order: 0.0174 µM and 0.0717 µM.
For `CCOCc1ccc(S(=O)(=O)c2ccc(NC(=O)/C=C/c3cccnc3)cc2)cc1` [(2E)-N-(4-{[4-(ethoxymethyl)benzene]sulfonyl}phenyl)-3-(pyridin-3-yl)prop-2-enamide] the same measures were 0.0078 µM and 0.1 to 1 µM.
In the case of `O=C(/C=C/c1cccnc1)Nc1ccc(S(=O)(=O)c2ccc(N3CCOCC3)cc2)cc1` [(2E)-N-(4-{[4-(morpholin-4-yl)benzene]sulfonyl}phenyl)-3-(pyridin-3-yl)prop-2-enamide], the results for the IC50 on NAMPT and in the test with A2780 cells were 0.0248 µM and 0.0553 µM, respectively.
With `CC(C)Oc1ccc(S(=O)(=O)c2ccc(NC(=O)/C=C/c3cccnc3)cc2)cc1` [(2E)-N-(4-{[4-(propan-2-yloxy)benzene]sulfonyl}phenyl)-3-(pyridin-3-yl)prop-2-enamide], the IC50 at NAMPT was 0.0054 µM; with A2780 cells it was 0.0915 µM.
As for `O=C(/C=C/c1cccnc1)Nc1ccc(S(=O)(=O)c2ccc(Cl)c(C(F)(F)F)c2)cc1` [(2E)-N-(4-{[4-chloro-3-(trifluoromethyl)benzene]sulfonyl}phenyl)-3-(pyridin-3-yl)prop-2-enamide], the values for the IC50 on NAMPT and in the test with A2780 cells were 0.0184 µM and 0.122 µM, respectively.
With `O=C(/C=C/c1cccnc1)Nc1ccc(S(=O)(=O)c2cccc3ccsc23)cc1` [(2E)-N-[4-(1-benzothiophene-7-sulfonyl)phenyl]-3-(pyridin-3-yl)prop-2-enamide], the values for the IC50 on NAMPT and in the test on A2780 cells were 0.0161 µM and 0.106 µM, respectively.
On to `Cn1ncc2cc(S(=O)(=O)c3ccc(NC(=O)/C=C/c4cccnc4)cc3)ccc21` [(2E)-N-[4-(1-methyl-1H-indazole-5-sulfonyl)phenyl]-3-(pyridin-3-yl)prop-2-enamide], for which the half-inhibitory concentration (IC50) on NAMPT turned out to be 0.0019 µM; with A2780 cells it was 0.0976 µM.
For the molecule `Cn1ncc2cccc(S(=O)(=O)c3ccc(NC(=O)/C=C/c4cccnc4)cc3)c21` [(2E)-N-[4-(1-methyl-1H-indazole-7-sulfonyl)phenyl]-3-(pyridin-3-yl)prop-2-enamide], the IC50 was 0.0089 µM at NAMPT and 0.1 to 1 µM with A2780 cells.
For `Cn1c(S(=O)(=O)c2ccc(NC(=O)/C=C/c3cccnc3)cc2)cc2ccccc21` [(2E)-N-[4-(1-methyl-1H-indole-2-sulfonyl)phenyl]-3-(pyridin-3-yl)prop-2-enamide], in that order: 0.0218 µM and 0.1 to 1 µM.
For `Cn1cc(S(=O)(=O)c2ccc(NC(=O)/C=C/c3cccnc3)cc2)cn1` [(2E)-N-[4-(1-methyl-1H-pyrazole-4-sulfonyl)phenyl]-3-(pyridin-3-yl)prop-2-enamide] the same measures were 0.0077 µM and 0.1 to 1 µM.
On to `CCCn1cc(S(=O)(=O)c2ccc(NC(=O)/C=C/c3cccnc3)cc2)cn1` [(2E)-N-[4-(1-propyl-1H-pyrazole-4-sulfonyl)phenyl]-3-(pyridin-3-yl)prop-2-enamide], for which the values for the IC50 on NAMPT and in the test on A2780 cells were 0.0026 µM and 0.0208 µM, respectively.
For `O=C(/C=C/c1cccnc1)Nc1ccc(S(=O)(=O)c2cccc3[nH]ccc23)cc1` [(2E)-N-[4-(1H-indole-4-sulfonyl)phenyl]-3-(pyridin-3-yl)prop-2-enamide] the same measures were 0.0023 µM and 0.0401 µM.
On to `O=C(/C=C/c1cccnc1)Nc1ccc(S(=O)(=O)c2cccc3cc[nH]c23)cc1` [(2E)-N-[4-(1H-indole-7-sulfonyl)phenyl]-3-(pyridin-3-yl)prop-2-enamide], for which the IC50 at NAMPT is 0.0084 µM; with A2780 cells it was 0.0133 µM.
For `O=C(/C=C/c1cccnc1)Nc1ccc(S(=O)(=O)c2cccc3c2OCC3)cc1` [(2E)-N-[4-(2,3-dihydro-1-benzofuran-7-sulfonyl)phenyl]-3-(pyridin-3-yl)prop-2-enamide], in that order: 0.0049 µM and 0.0361 µM.
For `Cc1ncccc1S(=O)(=O)c1ccc(NC(=O)/C=C/c2cccnc2)cc1` [(2E)-N-[4-(2-methylpyridine-3-sulfonyl)phenyl]-3-(pyridin-3-yl)prop-2-enamide], the IC50 at NAMPT was 0.009 µM; in the test on A2780 cells, 0.1 to 1 µM.
For `O=C(/C=C/c1cccnc1)Nc1ccc(S(=O)(=O)c2cccc3c2OCO3)cc1` [(2E)-N-[4-(2H-1,3-benzodioxole-4-sulfonyl)phenyl]-3-(pyridin-3-yl)prop-2-enamide], the IC50 on NAMPT was 0.0161 µM; with A2780 cells, 0.0751 µM.
For `O=C(/C=C/c1cccnc1)Nc1ccc(S(=O)(=O)c2ccc3c(c2)OCO3)cc1` [(2E)-N-[4-(2H-1,3-benzodioxole-5-sulfonyl)phenyl]-3-(pyridin-3-yl)prop-2-enamide], in that order: 0.0099 µM and 0.1 to 1 µM.

For orientation: IC50 means the concentration needed to halve the response being measured.
